The record followed here is US10016406B2, “Indazole inhibitors of the WNT signal pathway and therapeutic uses thereof” (Samumed, LLC, priority 2009, dated 2018).

SMILES strings stand for the structures.

The subject of this assay is Wnt. Briefly: Wnt reporter screening assay: SW480 cells stably transduced with SP5 promoter-firefly luciferase lentiviral construct. Format: cell-based. Conditions: Homo sapiens, SW480 colon cancer cells, 24 h after compound addition, normalized to DMSO, read-out: Wnt inhibition, IC50. The text has this:
Another screening assay for Wnt activity is described as follows. Reporter cell lines can be generated by stably transducing cells of cancer cell lines (e.g., colon cancer) with a lentiviral construct that include a wnt-responsive promoter driving expression of the firefly luciferase gene.
Lentiviral constructs can be made in which the SP5 promoter, a promoter having eight TCF/LEF binding sites derived from the SP5 promoter, is linked upstream of the firefly luciferase gene. The lentiviral constructs can also include a hygromycin resistance gene as a selectable marker. The SP5 promoter construct can be used to transduce SW480 cells, a colon cancer cell line having a mutated APC gene that generates a truncated APC protein, leading to de-regulated accumulation of β-catenin.
Cultured SW480 cells bearing a reporter construct can be distributed at approximately 10,000 cells per well into 384 well multiwell plates. Compounds from a small molecule compound library can then be added to the wells in half-log dilutions using a three micromolar top concentration. A series of control wells for each cell type receive only buffer and compound solvent. Twenty-four hours after the addition of compound, reporter activity for luciferases can be assayed, for example, by addition of the BrightGlo luminescence reagent (Promega) and the Victor3 plate reader (Perkin Elmer). Readings can be normalized to DMSO only treated cells, and normalized activities can then be used in the IC50 calculations.
For the molecule `CC(C)CC(=O)Nc1cncc(-c2ccc3[nH]nc(-c4nc5c(-c6cccnc6)cncc5[nH]4)c3c2)c1` [Compound 15, 3-methyl-N-(5-(3-(7-(pyridin-3-yl)-3H-imidazo[4,5-c]pyridin-2-yl)-1H-indazol-5-yl)pyridin-3-yl)butanamide], the half-inhibitory concentration (IC50) (as a rule, the concentration needed to halve the response being measured) was determined as 0.0056 µM.
`O=C(Nc1cncc(-c2ccc3[nH]nc(-c4nc5c(-c6cccnc6)cncc5[nH]4)c3c2)c1)C1CC1` [Compound 12, N-(5-(3-(7-(pyridin-3-yl)-3H-imidazo[4,5-c]pyridin-2-yl)-1H-indazol-5-yl)pyridin-3-yl)cyclopropanecarboxamide]: the IC50 lay in the range of 0.026 to 0.035 µM.
The figure for `CCC(=O)Nc1cncc(-c2ccc3[nH]nc(-c4nc5c(-c6cccnc6)cncc5[nH]4)c3c2)c1` [Compound 4, N-(5-(3-(7-(pyridin-3-yl)-3H-imidazo[4,5-c]pyridin-2-yl)-1H-indazol-5-yl)pyridin-3-yl)propionamide] is 0.029 to 0.05 µM.
Next, `O=C(NC1CCNCC1)c1cncc(-c2ccc3[nH]nc(-c4nc5ccncc5[nH]4)c3c2)c1` [Compound 1, 5-(3-(3H-imidazo[4,5-c]pyridin-2-yl)-1H-indazol-5-yl)-N-(piperidin-4-yl)nicotinamide]: greater than 10 µM.
Next, `CC(C)C(=O)Nc1cncc(-c2ccc3[nH]nc(-c4nc5c(-c6cccnc6)cncc5[nH]4)c3c2)c1` [Compound 11, N-(5-(3-(7-(pyridin-3-yl)-3H-imidazo[4,5-c]pyridin-2-yl)-1H-indazol-5-yl)pyridin-3-yl)isobutyramide]: 0.004 µM; `O=C(Nc1cncc(-c2ccc3[nH]nc(-c4nc5c(-c6cccnc6)cncc5[nH]4)c3c2)c1)C1CCC1` [Compound 21, N-(5-(3-(7-(pyridin-3-yl)-3H-imidazo[4,5-c]pyridin-2-yl)-1H-indazol-5-yl)pyridin-3-yl)cyclobutanecarboxamide]: 0.029 µM.
As to `O=C(Nc1cncc(-c2ccc3[nH]nc(-c4nc5c(-c6cccnc6)cncc5[nH]4)c3c2)c1)c1ccccc1` [Compound 16, N-(5-(3-(7-(pyridin-3-yl)-3H-imidazo[4,5-c]pyridin-2-yl)-1H-indazol-5-yl)pyridin-3-yl)benzamide], the IC50 lay in the range of 0.38 to 1.17 µM.
In the case of `O=C(Nc1cncc(-c2ccc3[nH]nc(-c4nc5c(-c6cccnc6)cncc5[nH]4)c3c2)c1)C1CCCCC1` [Compound 19, N-(5-(3-(7-(pyridin-3-yl)-3H-imidazo[4,5-c]pyridin-2-yl)-1H-indazol-5-yl)pyridin-3-yl)cyclohexanecarboxamide], the IC50 was in the range of 0.086 to 0.206 µM.
Next, `CC(C)(C)C(=O)Nc1cncc(-c2ccc3[nH]nc(-c4nc5c(-c6cccnc6)cncc5[nH]4)c3c2)c1` [Compound 17, N-(5-(3-(7-(pyridin-3-yl)-3H-imidazo[4,5-c]pyridin-2-yl)-1H-indazol-5-yl)pyridin-3-yl)pivalamide]: 0.032 to 0.05 µM.
Next, `CCCC(=O)Nc1cncc(-c2ccc3[nH]nc(-c4nc5c(-c6cccnc6)cncc5[nH]4)c3c2)c1` [Compound 20, N-(5-(3-(7-(pyridin-3-yl)-3H-imidazo[4,5-c]pyridin-2-yl)-1H-indazol-5-yl)pyridin-3-yl)butyramide]: 0.063 µM; `CCCCC(=O)Nc1cncc(-c2ccc3[nH]nc(-c4nc5c(-c6cccnc6)cncc5[nH]4)c3c2)c1` [Compound 23, N-(5-(3-(7-(pyridin-3-yl)-3H-imidazo[4,5-c]pyridin-2-yl)-1H-indazol-5-yl)pyridin-3-yl)pentanamide]: 0.034 to 0.064 µM; `CC(C)(C)CC(=O)Nc1cncc(-c2ccc3[nH]nc(-c4nc5c(-c6cccnc6)cncc5[nH]4)c3c2)c1` [Compound 18, 3,3-dimethyl-N-(5-(3-(7-(pyridin-3-yl)-3H-imidazo[4,5-c]pyridin-2-yl)-1H-indazol-5-yl)pyridin-3-yl)butanamide]: 0.021 to 0.039 µM.
Take `O=C(NCC1CCCCC1)c1cncc(-c2ccc3[nH]nc(-c4nc5ccncc5[nH]4)c3c2)c1` [Compound 2, 5-(3-(3H-imidazo[4,5-c]pyridin-2-yl)-1H-indazol-5-yl)-N-(cyclohexylmethyl)nicotinamide]: the IC50 was greater than 10 µM.
The figure for `O=C(NCC1CC1)c1cncc(-c2ccc3[nH]nc(-c4nc5c(-c6cccnc6)cncc5[nH]4)c3c2)c1` [Compound 3, N-(cyclopropylmethyl)-5-(3-(7-(pyridin-3-yl)-3H-imidazo[4,5-c]pyridin-2-yl)-1H-indazol-5-yl)nicotinamide] is greater than 10 µM.
